We go through one substance from patent US10245351B2, “Malleable hydrogel hybrids made of self-assembled peptides and biocompatible polymers and uses thereof” (Technology Innovation Momentum Fund (Israel) Limited …, priority 2010, dated 2019).

The data set concerns CHO (Chinese Hamster Ovaries) cells. Description: Cells viability test (MTT), cells on top of hydrogel. In kind it is cell-based. On the procedure: To verify the ability of the hybrid hydrogels described herein to be used in biological applications, their biocompatibility was determined using an in vitro cell culture experiment. Three types of cells were cultivated on top of the hybrid hydrogels: CHO (Chinese Hamster Ovaries), fibroblasts and chondrocytes.
CHO, fibroblasts and chondrocytes cells were grown in Dulbecco's Modified
Eagle Medium (DMEM) supplemented with 10% fetal calf serum, 100 U/ml penicillin, 100 U/ml streptomycin, and 2 mmol/liter L-glutamine (all from Beit Haemeck, Israel). Cells were maintained at 37° C. in a humidified atmosphere containing 5% CO2. Subconfluent cultures were harvested by trypsinization, counted, and diluted in specific cells' media to form a cell concentration of 10^6 cells/ml. The gels swelled overnight with 0.1 ml DMEM. The next day, DMEM was removed and […] of the CHO cells (10^5 cells) were placed on top of the hydrogel. After 1, 3 and 7 days of incubation at 37° C. the viability of the cells was determined using an MTT assay.
The cell viability was analyzed 1, 3 and 7 days post seeding. Cells seeded as monolayers with PBS were used as control. Cell viability was analyzed using an MTT assay. […]

hyaluronic acid [HA]: the “viability, in words” value is listed as “high viability”.
